The values below come from publication PMC3946003, “Protein kinase inhibitor SU6668 attenuates positive regulation of Gli proteins in cancer and multipotent progenitor cells” (Biochimica et Biophysica Acta, 2014).

pKi: −log10 of the molar value.

Assay [1] deals with T1, ULK3 (Homo sapiens, UniProt Q6PHR2).
T1 sequence (Q6PHR2 1-472): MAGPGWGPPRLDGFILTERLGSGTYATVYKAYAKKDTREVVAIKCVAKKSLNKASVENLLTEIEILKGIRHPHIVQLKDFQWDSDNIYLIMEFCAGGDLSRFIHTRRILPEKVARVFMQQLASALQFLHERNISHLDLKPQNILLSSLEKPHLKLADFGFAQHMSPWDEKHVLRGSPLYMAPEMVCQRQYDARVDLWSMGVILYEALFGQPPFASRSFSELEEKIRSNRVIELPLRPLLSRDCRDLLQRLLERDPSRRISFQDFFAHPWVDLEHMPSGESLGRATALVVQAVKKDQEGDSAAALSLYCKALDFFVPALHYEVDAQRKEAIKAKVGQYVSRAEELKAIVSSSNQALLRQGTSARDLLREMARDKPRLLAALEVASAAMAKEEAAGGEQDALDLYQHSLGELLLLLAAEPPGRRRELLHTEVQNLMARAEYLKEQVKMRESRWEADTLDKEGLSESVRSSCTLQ

Assay [2] deals with T1, ULK3. Put plainly: in vitro kinase assay (ULK3 autophosphorylation, […] ATP); Ki calculated from IC50 […]. The assay is classed as biochemical. Details: bacterially expressed and purified His-tagged ULK3 protein.

In general, Km refers to the substrate concentration at which the rate is half of its maximum. For `Nc1ncnc2c1ncn2[C@@H]1O[C@H](COP(=O)(O)OP(=O)(O)OP(=O)(O)O)[C@@H](O)[C@H]1O` [ATP], the Michaelis constant (Km) at ULK3 [1] was determined as 3.2 µM.
By pKi is commonly meant −log10 of the Ki, conventionally taken in molar units. Regarding `Cc1[nH]c(/C=C2\C(=O)Nc3ccccc32)c(C)c1CCC(=O)O` [SU6668, (Z)-5-[(1,2-dihydro-2-oxo-3H-indol-3-ylidene)methyl]-2,4-dimethyl-1H-pyrrole-3-propanoic acid], on ULK3 [2], the pKi was around 6.70.
